Reference: patent US7452997B2 (priority 2004, dated 2008)
Where two headings read alike, the source gives them in different places.

How the values were obtained:
[1] = molecular target: T1, human CB1 receptor (Homo sapiens, UniProt P21554); experiment: biochemical; format: binding
T1 construct: expressed in transfected cells; host or cells: SK-N-MC cells, stably transfected with pcDNA3 CB-1 (human); semi-purified membrane pellet
Protocol: (§1) Binding Assay for CB1 or CB2 Agonists or Inverse Agonists
(§2) The human CB1 and CB2 receptors were stably expressed in SK-N-MC cells transfected with pcDNA3 CB-1 (human) or pcDNA3 CB-2 (human). The cells were grown in T-180 cell culture flasks under standard cell culture conditions at 37° C. in a 5% CO2 atmosphere. The cells were harvested by trysinization and homogenized in a homogenization buffer (10 mM Tris, 0.2 mM MgCl2, 5 mM KCl, with protease inhibitors aprotinin, leupeptin, pepstatin A and bacitracin) and centrifuged (2000 g). The supernatant was then centrifuged in 2M sucrose (31,300 g) to produce a semi-purified membrane pellet. The pellet was resuspended in homogenization and store at −80° C.
On the day of the assay, the pellet was thawed on ice and diluted in assay buffer (50 mM Tris-HCl, 5 mM MgCl2, 2.5 mM EDTA, 0.5 mg/mL fatty acid free bovine serum albumin, pH 7.5). […] The plate was covered and incubated for 90 minutes at 30° C. The contents were then aspirated onto a Packard […] GF/C filter bottom plate prewet with 0.5% polyethyleneimine. The wells of the polypropylene plate were rinsed and aspirated seven times with a 0.9% saline-0.5% TWEEN 20 solution. The […] plate was dried, a scintillation cocktail was added to each well and the counts representing binding were quantitated in a TOPCOUNT scintillation counter.
(§3) The IC50 binding values for compounds tested were calculated by linear regression and were obtained from studies in which varying compound concentrations were used.

[2] = molecular target: human CB2 receptor (Homo sapiens, UniProt P34972); experiment: Binding assay, cannabinoid CB2 receptor ([3H]-CP-55,940 displacement); details: SK-N-MC cell membranes, radioligand CP-55,940 0.2 nM
human CB2 receptor, sequence (P34972 whole entry): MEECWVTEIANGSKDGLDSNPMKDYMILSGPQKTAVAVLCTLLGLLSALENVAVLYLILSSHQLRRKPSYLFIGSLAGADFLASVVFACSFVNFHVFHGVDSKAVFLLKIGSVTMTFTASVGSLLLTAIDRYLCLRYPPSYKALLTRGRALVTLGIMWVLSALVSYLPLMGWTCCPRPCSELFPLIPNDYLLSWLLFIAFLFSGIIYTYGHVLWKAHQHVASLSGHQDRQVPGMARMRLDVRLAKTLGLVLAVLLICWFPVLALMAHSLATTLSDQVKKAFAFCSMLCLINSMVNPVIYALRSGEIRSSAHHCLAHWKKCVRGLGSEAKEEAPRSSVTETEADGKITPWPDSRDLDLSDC
Protocol: as §1, §2
On the day of the assay, the pellet was thawed on ice and diluted in assay buffer (50 mM Tris-HCl, 5 mM MgCl2, 2.5 mM EDTA, 0.5 mg/mL fatty acid free bovine serum albumin, pH 7.5). The diluted membrane was added with buffer, test compound or standard and the radioligand [H]^3+-CP-55,940_(0.2 nM) to the wells of a 96-well polypropylene plate. Non-specific binding was measured in wells containing 10 uM WIN 55,212. The plate was covered and incubated for 90 minutes at 30° C. The contents were then aspirated onto a Packard UNIFILTER GF/C filter bottom plate prewet with 0.5% polyethyleneimine. The wells of the polypropylene plate were rinsed and aspirated seven times with a 0.9% saline-0.5% TWEEN 20 solution. The UNIFILTER plate was dried, a scintillation cocktail was added to each well and the counts representing binding were quantitated in a TOPCOUNT scintillation counter.
as §3

[3] = Cannabinoid CB2 Receptor Binding IC50, human CB2 receptor

T1 sequence (P21554 whole entry): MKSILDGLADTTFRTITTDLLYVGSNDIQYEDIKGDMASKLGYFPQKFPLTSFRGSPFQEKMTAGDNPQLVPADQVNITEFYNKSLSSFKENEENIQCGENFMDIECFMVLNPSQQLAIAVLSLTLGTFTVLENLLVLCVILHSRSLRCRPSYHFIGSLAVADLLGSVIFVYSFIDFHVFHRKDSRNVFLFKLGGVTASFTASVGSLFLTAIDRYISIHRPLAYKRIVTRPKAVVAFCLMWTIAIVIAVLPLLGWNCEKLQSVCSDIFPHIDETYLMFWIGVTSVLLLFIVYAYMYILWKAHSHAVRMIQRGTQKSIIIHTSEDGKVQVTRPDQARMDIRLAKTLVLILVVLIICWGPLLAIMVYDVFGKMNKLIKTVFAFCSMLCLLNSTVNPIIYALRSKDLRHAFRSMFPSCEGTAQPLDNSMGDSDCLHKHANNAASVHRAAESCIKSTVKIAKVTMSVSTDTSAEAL

Row | SMILES | IC50 [1] | IC50 [2, 3] | IC50 ([1]; human CB1 receptor, SK-N-MC cell membranes, radioligand CP-55,940 0.2 nM, read-out: Cannabinoid CB1 Receptor Binding IC50) | IC50 ([2]; human CB2 receptor, read-out: Cannabinoid CB2 Receptor Binding IC50)
1 | CCN(C(=O)c1nn(C2CCCCC2)c2c1CCCC2)[C@H](C)C1CCCCC1 [compound 203] | 590 nM | 240 nM |  | 
2 | CCOC(=O)C1CCCc2c1c(C(=O)NC1C3CC4CC(C3)CC1C4)nn2Cc1ccccc1 (centres unmarked) [compound 158] | 13 nM | 9 nM |  | 
3 | C[C@H](NC(=O)c1nn(C2CCCCC2)c2c1CCCC2)C12CC3CC(CC(C3)C1)C2 [compound 213] | 950 nM | 200 nM |  | 
4 | CCOC(=O)C1=C(NC(=O)c2nn(C3CCCCC3)c3c2CCCC3)CCC1 [compound 57] | 10900 nM | 2200 nM |  | 
5 | CCOC(=O)[C@H]1CCCC[C@@H]1NC(=O)c1nn(C2CCCCC2)c2c1CCCC2 [compound 59] | 340 nM | 70 nM |  | 
6 | CCOC(=O)C1CCc2c(C(=O)NC3C4CC5CC(C4)CC3C5)nn(Cc3ccccc3)c2C1 (centres unmarked) [compound 230] | 10 nM | 1 nM |  | 
7 | O=C(N[C@@H]1CCCC[C@@H]1CO)c1nn(C2CCCCC2)c2c1CCCC2 [compound 48] | 249 nM | 55.3 nM |  | 
8 | O=C(NC1C2CC3CC(C2)CC1C3)c1nn(C2CCCCC2)c2c1CCCC2 (centres unmarked) [compound 45] | 40 nM | 5.6 nM |  | 
9 | CCOC(=O)[C@@H]1CCCC[C@@H]1NC(=O)c1c2c(nn1Cc1ccccc1)CCCC2 [compound 270] | 3100 nM | 1800 nM |  | 
10 | COc1ccccc1CCNC(=O)c1nn(Cc2ccccc2)c2c1CCCC2 [compound 237] | 890 nM | 151 nM |  | 
11 | O=C(NC(c1ccccc1)C1CCCCC1)c1nn(C2CCCCC2)c2c1CCCC2 (centres unmarked) [Cpd 331, 1-cyclohexyl-4,5,6,7-tetrahydro-1H-indazole-3-carboxylic acid (cyclohexyl-phenyl)methylamide] | 3000 nM | 98 nM |  | 
12 | CCOC(=O)[C@@H]1CCCC[C@H]1NC(=O)c1nn(Cc2ccccc2)c2c1CCCC2 [compound 272] | 86 nM | 70 nM |  | 
13 | CCOC(=O)C1CCc2c(C(=O)NC3C4CC5CC(C4)CC3C5)nn(C3CCCCC3)c2C1 (centres unmarked) [compound 68] | 463 nM | 57 nM |  | 
14 | CC(c1ccccc1)n1nc(C(=O)NC2C3(C)CCC(C3)C2(C)C)c2c1CCCC2 (centres unmarked) [compound 250] | 70 nM | 5.6 nM |  | 
15 | CCOC(=O)C1CC=CCC1NC(=O)c1nn(C2CCCCC2)c2c1CCCC2OC (centres unmarked) [compound 120] | 2460 nM | 875 nM |  | 
16 | O=C(NNC1CCCCC1)c1nn(-c2ccc(F)cc2)c2c1CCCC2 [compound 30] | 7890 nM | 1470 nM |  | 
17 | O=C(NCC(O)C1CCCCC1)c1nn(C2CCCCC2)c2c1CCCC2 (centres unmarked) [compound 185] | 900 nM | 120 nM |  | 
18 | CCC(NC(=O)c1nn(C2CCCCC2)c2c1CCCC2)C1CCCCC1 (centres unmarked) [compound 234] | 230 nM | 10 nM |  | 
19 | CCOC(=O)C1CCc2nn(C3CCCCC3)c(C(=O)NC(C)C34CC5CC(CC(C5)C3)C4)c2C1 (centres unmarked) [compound 190] | 1620 nM | 4500 nM |  | 
20 | CCOC[C@H]1C2CCC(C2)[C@H]1NC(=O)c1nn(C2CCCCC2)c2c1CCCC2 (some centres unmarked) [compound 107] | 910 nM | 1400 nM |  | 
21 | CN(C)C(=O)C1CCc2c(c(C(=O)NC3C4(C)CCC(C4)C3(C)C)nn2C2CCCCC2)C1 (centres unmarked) [compound 235] | 3600 nM | 1400 nM |  | 
22 | O=C(NC12CC3CC(CC(C3)C1)C2)c1c2c(nn1-c1ccc(Cl)cc1Cl)CCCC2 [compound 140] | 890 nM | 3400 nM |  | 
23 | CC(C)N(C(=O)c1nn(C2CCCCC2)c2c1CCCC2)[C@H](C)C1CCCCC1 [compound 329] | 1700 nM | 20 nM |  | 
24 | COC1CCCc2c(C(=O)NC3C4CC5CC(C4)CC3C5)nn(C3CCCCC3)c21 (centres unmarked) [compound 162] |  |  | 635 nM | 110 nM
25 | O=C(NCC12CC3CC(CC(C3)C1)C2)c1c2c(nn1-c1ccc(Cl)cc1Cl)CCCC2 [compound 142] | 600 nM | 400 nM |  | 
